Source: US20230143612A1 (Arbutus Biopharma Corporation, priority 2020, published 2023)

Target: PD-L1 His protein / PD-1 Fc protein (Homo sapiens, UniProt Q9NZQ7)
Assay: HTRF Assay (PD-1/PD-L1 interaction)
Type: binding
Conditions: PD-L1 His 6 nM, PD-1 Fc 6 nM
Summary of the method: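 HTRF: PD-L1 His (6 nM final), compound (3-fold dilutions, 20 μM to 0.001 μM final) and PD-1 Fc (6 nM final) preincubated 15 min at room temperature. Anti-human IgG-XL665 and anti-6HIS Tb cryptate (mixed at 6.7 nM and 0.35 nM) then added for 1 h at room temperature before reading.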

Chain of PD-L1 His protein / PD-1 Fc protein (Q9NZQ7 19-238 limits assumed): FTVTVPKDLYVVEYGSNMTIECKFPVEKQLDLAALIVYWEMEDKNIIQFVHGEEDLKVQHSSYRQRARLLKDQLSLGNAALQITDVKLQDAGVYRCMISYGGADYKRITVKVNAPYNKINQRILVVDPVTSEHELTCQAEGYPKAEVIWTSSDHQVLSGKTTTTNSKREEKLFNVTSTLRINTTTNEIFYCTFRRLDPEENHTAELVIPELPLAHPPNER

Row | Structure (SMILES) | IC50
1 | COc1nc(-c2cccc(-c3cccc(-c4ccn5c(=O)c(CN6CC(C(=O)O)C6)cnc5c4)c3Cl)c2Cl)ccc1CNC[C@@H]1CCC(=O)N1 [Example 98, (S)-1-((8-(2,2′-Dichloro-3′-(6-methoxy-5-((((5-oxopyrrolidin-2-yl)methyl)amino)methyl)pyridin-2-yl)-[1,1′-biphenyl]-3-yl)-4-oxo-4H-pyrido[1,2-a]pyrimidin-3-yl)methyl)azetidine-3-carboxylic acid] | 0.3 nM
2 | COc1nc(-c2cccc(-c3cccc(-c4ccn5c(=O)c(CNC[C@@H](C)O)cnc5c4)c3Cl)c2Cl)ccc1CNC[C@@H](C)O [Example 186, 8-(2,2′-Dichloro-3′-(5-((((R)-2-hydroxypropyl)amino)methyl)-6-methoxypyridin-2-yl)-[1,1′-biphenyl]-3-yl)-3-((((R)-2-hydroxypropyl)amino)methyl)-4H-pyrido[1,2-a]pyrimidin-4-one] | 6.4 nM
3 | CNC(=O)[C@H]1CCN(Cc2cnc3cc(-c4cccc(-c5cccc(-c6ccc(CNC[C@@H]7CCC(=O)N7)c(OC)n6)c5Cl)c4Cl)ccn3c2=O)C1 [Example 257, (S)-1-((8-(2,2′-Dichloro-3′-(6-methoxy-5-(((((S)-5-oxopyrrolidin-2-yl)methyl)amino)methyl)pyridin-2-yl)-[1,1′-biphenyl]-3-yl)-4-oxo-4H-pyrido[1,2-a]pyrimidin-3-yl)methyl)-N-methylpyrrolidine-3-carboxamide] | 1.9 nM
4 | COc1cc(-c2cccc(-c3cccc(-c4ccc(CNC[C@@H]5CCC(=O)N5)c(OC)n4)c3Cl)c2Cl)cc2c1CN(CCC1(O)CCC1)CC2 [Example 484, (S)-5-((((6-(2,2′-Dichloro-3′-(2-(2-(1-hydroxycyclobutyl)ethyl)-8-methoxy-1,2,3,4-tetrahydroisoquinolin-6-yl)-[1,1′-biphenyl]-3-yl)-2-methoxypyridin-3-yl)methyl)amino)methyl)pyrrolidin-2-one] | 0.3 nM
5 | COc1nc(-c2cccc(-c3cccc(-c4ccc5nc(CN[C@H]6C[C@](C)(O)C6)cc(=O)n5c4)c3Cl)c2Cl)ccc1CNC[C@@H]1CCC(=O)N1 [Example 325, 7-(2,2′-dichloro-3′-(6-methoxy-5-(((((S)-5-oxopyrrolidin-2-yl)methyl)amino)methyl)pyridin-2-yl)-[1,1′-biphenyl]-3-yl)-2-((((1r,3r)-3-hydroxy-3-methylcyclobutyl)amino)methyl)-4H-pyrido[1,2-a]pyrimidin-4-one] | 0.1 nM
6 | COc1nc(-c2cccc(-c3cccc(-c4ccc5c(c4)CNCCN5C)c3Cl)c2Cl)ccc1CNC[C@@H]1CCC(=O)N1 [Example 363, (S)-5-((((6-(2,2′-Dichloro-3′-(1-methyl-2,3,4,5-tetrahydro-1H-benzo[e][1,4]diazepin-7-yl)-[1,1′-biphenyl]-3-yl)-2-methoxypyridin-3-yl)methyl)amino)methyl)pyrrolidin-2-one] | 85 nM
7 | COc1nc(-c2cccc(-c3cccc(-c4ccn5c(=O)c(CNC[C@H]6C[C@H]6CO)cnc5c4)c3Cl)c2Cl)ccc1CNC[C@@H]1CCC(=O)N1 [Example 408, 8-(2,2′-Dichloro-3′-(6-methoxy-5-(((((S)-5-oxopyrrolidin-2-yl)methyl)amino)methyl)pyridin-2-yl)-[1,1′-biphenyl]-3-yl)-3-(((((1S,2R)-2-(hydroxymethyl)cyclopropyl)methyl)amino)methyl)-4H-pyrido[1,2-a]pyrimidin-4-one] | 1.1 nM
8 | COc1nc(-c2cccc(-c3cccc(-c4ccn5c(=O)c(CNCC(C)(O)C6CC6)cnc5c4)c3Cl)c2Cl)ccc1CNC[C@@H]1CCC(=O)N1 (mixture of isomers) [Example 280, 3-(((2-cyclopropyl-2-hydroxypropyl)amino)methyl)-8-(2,2′-dichloro-3′-(6-methoxy-5-(((((S)-5-oxopyrrolidin-2-yl)methyl)amino)methyl)pyridin-2-yl)-[1,1′-biphenyl]-3-yl)-4H-pyrido[1,2-a]pyrimidin-4-one] | 37 nM
9 | COc1nc(-c2cccc(-c3cccc(-c4cc5c(=O)n(C)c(CNC6CC7(CCC(=O)N7)C6)nn5c4)c3Cl)c2Cl)ccc1CNC[C@@H]1CCC(=O)N1 (stereo partly drawn) [Example 449, 6-[2-Chloro-3-[2-chloro-3-[6-methoxy-5-[[[(2S)-5-oxopyrrolidin-2-yl]methylamino]methyl]-2-pyridyl]phenyl]phenyl]-3-methyl-2-[[(6-oxo-5-azaspiro[3.4]octan-2-yl)amino]methyl] pyrrolo[2,1-f][1,2,4]triazin-4-one] | 450 nM
10 | COc1nc(-c2cccc(-c3cccc(-c4cc5c(=O)n(C)c(CNCC(C)(C)O)nn5c4)c3Cl)c2Cl)ccc1CNC[C@@H]1CCC(=O)N1 [Example 405, (S)-6-(2,2′-Dichloro-3′-(6-methoxy-5-((((5-oxopyrrolidin-2-yl)methyl)amino)methyl)pyridin-2-yl)-[1,1′-biphenyl]-3-yl)-2-(((2-hydroxy-2-methylpropyl)amino)methyl)-3-methylpyrrolo [2,1-f][1,2,4]triazin-4(3H)-one] | 84 nM
11 | COc1nc(-c2cccc(-c3cccc(-c4ccc5c(n4)CCC[C@@H]5NC[C@@H]4CCC(=O)N4)c3Cl)c2Cl)ccc1CNC[C@@H]1CCC(=O)N1 [Example 435, (S)-5-((((6-(2,2′-Dichloro-3′-((S)-5-((((S)-5-oxopyrrolidin-2-yl)methyl)amino)-5,6,7,8-tetrahydroquinolin-2-yl)-[1,1′-biphenyl]-3-yl)-2-methoxypyridin-3-yl)methyl)amino)methyl)pyrrolidin-2-one] | 23 nM
12 | COc1nc(-c2cccc(-c3cccc(-c4cc5c(=O)n(C)c(CN[C@H]6C[C@](C)(O)C6)nn5c4)c3Cl)c2Cl)cc(Cl)c1CNC[C@@H]1CCC(=O)N1 [Example 464, 6-(2,2′-dichloro-3′-(4-chloro-6-methoxy-5-(((((S)-5-oxopyrrolidin-2-yl)methyl)amino)methyl)pyridin-2-yl)-[1,1′-biphenyl]-3-yl)-2-((((1r,3r)-3-hydroxy-3-methylcyclobutyl)amino)methyl)-3-methylpyrrolo[2,1-f][1,2,4]triazin-4(3H)-one] | 7.5 nM
13 | COc1nc(-c2cccc(-c3cccc(-c4ccn5c(=O)c(CNC[C@@H]6CCC(=O)N6)cnc5c4)c3Cl)c2Cl)ccc1CN[C@H]1C[C@H](O)C1 [Example 158, 8-(2,2′-Dichloro-3′-(5-((((1r,3r)-3-hydroxycyclobutyl)amino)methyl)-6-methoxypyridin-2-yl)-[1,1′-biphenyl]-3-yl)-3-(((((S)-5-oxopyrrolidin-2-yl)methyl)amino)methyl)-4H-pyrido[1,2-a]pyrimidin-4-one] | 2 nM
14 | COc1nc(-c2cccc(-c3cccc(-c4ccn5c(=O)c6c(nc5c4)N(C)CCNC6)c3Cl)c2Cl)ccc1CNC[C@@H]1CCC(=O)N1 [Example 374, (S)-10-(2,2′-Dichloro-3′-(6-methoxy-5-((((5-oxopyrrolidin-2-yl)methyl)amino)methyl)pyridin-2-yl)-[1,1′-biphenyl]-3-yl)-1-methyl-2,3,4,5-tetrahydropyrido[1′,2′:1,2]pyrimido [4,5-e][1,4]diazepin-6(1H)-one] | 6.5 nM
15 | COc1nc(-c2cccc(-c3cccc(-c4ccc5nc(CN(C)CCO)cn5n4)c3Cl)c2Cl)ccc1CN(C)CCO [Example 339, 2-[[6-[2-Chloro-3-[2-chloro-3-[2-[[2-hydroxyethyl(methyl)amino]methyl]imidazo[1,2-b]pyridazin-6-yl]phenyl]phenyl]-2-methoxy-3-pyridyl]methyl-methyl-amino]etanol] | 26 nM
16 | COc1nc(-c2cccc(-c3cccc(-c4ccc5c(n4)nc(CNC[C@@H]4CCC(=O)N4)n5C)c3Cl)c2Cl)ccc1CNC[C@@H]1CCC(=O)N1 [Example 312, (S)-5-((((6-(2,2′-Dichloro-3′-(1-methyl-2-(((((S)-5-oxopyrrolidin-2-yl)methyl)amino)methyl)-1H-imidazo[4,5-b]pyridin-5-yl)-[1,1′-biphenyl]-3-yl)-2-methoxypyridin-3-yl)methyl)amino)methyl)pyrrolidin-2-one] | 0.1 nM
17 | O=C1CC[C@@H](CNCc2cnc3cc(-c4cccc(-c5cccc(-c6ccc7c(n6)OCCN(CCO)C7)c5Cl)c4Cl)ccn3c2=O)N1 [Example 268, (S)-8-(2,2′-Dichloro-3′-(4-(2-hydroxyethyl)-2,3,4,5-tetrahydropyrido[3,2-f][1,4]oxazepin-8-yl)-[1,1′-biphenyl]-3-yl)-3-((((5-oxopyrrolidin-2-yl)methyl)amino)methyl)-4H-pyrido[1,2-a]pyrimidin-4-one] | 710 nM
18 | COc1nc(-c2cccc(-c3cccc(-c4ccn5c(=O)c(CNCC6CCCC(=O)N6)cnc5c4)c3Cl)c2Cl)ccc1CNC[C@@H]1CCC(=O)N1 (mixture of isomers) [Example 206, 8-(2,2′-Dichloro-3′-(6-methoxy-5-(((((S)-5-oxopyrrolidin-2-yl)methyl)amino)methyl)pyridin-2-yl)-[1,1′-biphenyl]-3-yl)-3-((((6-oxopiperidin-2-yl)methyl)amino)methyl)-4H-pyrido[1,2-a]pyrimidin-4-one] | 14 nM
19 | CNC(=O)C1(NCc2cc(=O)n3ccc(-c4cccc(-c5cccc(-c6ccc(CNC[C@@H]7CCC(=O)N7)c(OC)n6)c5Cl)c4Cl)cc3n2)CC1 [Example 349, (S)-1-(((8-(2,2′-Dichloro-3′-(6-methoxy-5-((((5-oxopyrrolidin-2-yl)methyl)amino)methyl)pyridin-2-yl)-[1,1′-biphenyl]-3-yl)-4-oxo-4H-pyrido[1,2-a]pyrimidin-2-yl)methyl)amino)-N-methylcyclopropanecarboxamide] | 0.2 nM
20 | COc1nc(-c2cccc(-c3cccc(N4Cc5cc(CNC[C@@H]6CCC(=O)N6)ccc5C4=O)c3Cl)c2Cl)ccc1CNC[C@@H]1CCC(=O)N1 [Example 387, 2-(2,2′-Dichloro-3′-(6-methoxy-5-(((((S)-5-oxopyrrolidin-2-yl)methyl)amino)methyl)pyridin-2-yl)-[1,1′-biphenyl]-3-yl)-5-(((((S)-5-oxopyrrolidin-2-yl)methyl)amino)methyl)isoindolin-1-one] | 0.1 nM
